From patent US12594276B2, “Inhibitors of human immunodeficiency virus replication” (ViiV Healthcare UK (No.5) Limited, priority 2024, dated 2026)

Key:
[1] = tested on: recombinant NL4-3 virus (nef section replaced with Renilla luciferase gene) in MT-2 cells; test: HIV cell culture assay (antiviral activity, luciferase readout); assay type: cell-based; details: Renilla, NL43, MT-2 cells infected for 4-5 days with recombinant NL4-3 Renilla luciferase virus
Method in brief: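 Antiviral EC50 derived from luciferase signal using the exponential median effect equation. Infection of MT-2 cells ran 4-5 days alongside serial dilutions of compound, with virus generated by proviral clone transfection of 293T cells.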

[2] = Compound cytotoxicity, XTT-based colorimetric assay; assay type: cell-based; details: human; uninfected MT2 cells, day 4, XTT; read-out: CC50
Method in brief: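 Cells seeded as for the antiviral assay but left uninfected (MT2). Compound exposure continued to day 4. XTT reagent added and colour read. CC50 calculated.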

Row | SMILES | EC50 [1] | CC50 at 4 days [2]
1 | Cc1cc(C2CCC(F)(F)CC2)nc2nc([C@H](Cc3cc(F)cc(F)c3)NC(=O)Cn3nc(C(F)(F)F)c4c3C(F)(F)[C@@H]3C[C@H]43)n(-c3ccc(Cl)c4c(NS(C)(=O)=O)nn(CCCN5CCOCC5)c34)c(=O)c12 (atropisomer, axis not shown; (P)) [Example 121, N-[(1S)-1-[(3P)-3-{4-chloro-3-methanesulfonamido-1-[3-(morpholin-4-yl)propyl]-1H-indazol-7-yl}-7-(4,4-difluorocyclohexyl)-5-methyl-4-oxo-3H,4H-pyrido[2,3-d]pyrimidin-2-yl]-2-(3,5-difluorophenyl)ethyl]-2-[(2S,4R)-5,5-difluoro-9-(trifluoromethyl)-7,8-diazatricyclo[4.3.0.0^2,^4]nona-1(6),8-dien-7-yl]acetamide] | 0.027 nM | > 50 nM
2 | CS(=O)(=O)Nc1nn(CCN2C[C@H](F)C[C@H](F)C2)c2c(-n3c([C@H](Cc4cc(F)cc(F)c4)NC(=O)Cn4nc(C5CC5)c5c4C[C@@H]4C[C@H]54)nc4nc(C5CCC(F)(F)CC5)cc(C(F)F)c4c3=O)ccc(Cl)c12 (atropisomer, axis not shown; (P)) [Example 287, N-[(1S)-1-[(3P)-3-(4-chloro-1-{2-[(3R,5S)-3,5-difluoropiperidin-1-yl]ethyl}-3-methanesulfonamido-1H-indazol-7-yl)-7-(4,4-difluorocyclohexyl)-5-(difluoromethyl)-4-oxo-3H,4H-pyrido[2,3-d]pyrimidin-2-yl]-2-(3,5-difluorophenyl)ethyl]-2-[(2S,4S)-9-cyclopropyl-7,8-diazatricyclo[4.3.0.0^2,^4]nona-1(6),8-dien-7-yl]acetamide] | 0.01 nM | > 50 nM
3 | CO[C@@H](C)Cn1nc(NS(C)(=O)=O)c2c(Cl)ccc(-n3c([C@H](Cc4cc(F)cc(F)c4)NC(=O)Cn4nc(C(F)F)c5c4C(F)(F)[C@@H]4C[C@H]54)nc4nc(C5CCC(F)(F)CC5)cc(C)c4c3=O)c21 (atropisomer, axis not shown; (P)) [Example 78, N-[(1S)-1-[(3P)-3-{4-chloro-3-methanesulfonamido-1-[(2S)-2-methoxypropyl]-1H-indazol-7-yl}-7-(4,4-difluorocyclohexyl)-5-methyl-4-oxo-3H,4H-pyrido[2,3-d]pyrimidin-2-yl]-2-(3,5-difluorophenyl)ethyl]-2-[(2S,4R)-9-(difluoromethyl)-5,5-difluoro-7,8-diazatricyclo[4.3.0.0^2,^4]nona-1(6),8-dien-7-yl]acetamide] | 0.016 nM | > 50 nM
4 | Cc1cc(C2(F)CCC(F)(F)CC2)nc2nc([C@H](Cc3cc(F)cc(F)c3)NC(=O)Cn3nc(C4CC4)c4c3C[C@@H]3C[C@H]43)n(-c3ccc(Cl)c4c(NS(C)(=O)=O)nn(CCN5C[C@@H](C)O[C@@H](C)C5)c34)c(=O)c12 (atropisomer, axis not shown; (P)) [Example 503, N-[(1S)-1-[(3P)-3-(4-chloro-1-{2-[(2R,6S)-2,6-dimethylmorpholin-4-yl]ethyl}-3-methanesulfonamido-1H-indazol-7-yl)-5-methyl-4-oxo-7-(1,4,4-trifluorocyclohexyl)-3H,4H-pyrido[2,3-d]pyrimidin-2-yl]-2-(3,5-difluorophenyl)ethyl]-2-[(2S,4S)-9-cyclopropyl-7,8-diazatricyclo[4.3.0.0^2,4]nona-1(6),8-dien-7-yl]acetamide] | 0.008 nM | > 20 nM
5 | COCCCn1nc(NS(C)(=O)=O)c2c(Cl)ccc(-n3c([C@H](Cc4cc(F)cc(F)c4)NC(=O)Cn4nc(C(F)F)c5c4C(F)(F)[C@@H]4C[C@H]54)nc4nc(C5CCC(F)(F)CC5)cc(CN5C[C@@H](C)O[C@@H](C)C5)c4c3=O)c21 (atropisomer, axis not shown; (P)) [Example 448, N-[(1S)-1-[(3P)-3-[4-chloro-3-methanesulfonamido-1-(3-methoxypropyl)-1H-indazol-7-yl]-7-(4,4-difluorocyclohexyl)-5-{[(2R,6S)-2,6-dimethylmorpholin-4-yl]methyl}-4-oxo-3H,4H-pyrido[2,3-d]pyrimidin-2-yl]-2-(3,5-difluorophenyl)ethyl]-2-[(2S,4R)-9-(difluoromethyl)-5,5-difluoro-7,8-diazatricyclo[4.3.0.0^2,4]nona-1(6),8-dien-7-yl]acetamide] | 0.009 nM | > 20 nM
6 | Cc1cc(C2CCC(F)(F)CC2)nc2nc([C@H](Cc3cc(F)cc(F)c3)NC(=O)Cn3nc(C4CC4)c4c3C[C@@H]3C[C@H]43)n(-c3ccc(Cl)c4c(NS(C)(=O)=O)nn(CCN5C[C@H](C)OC(C)(C)C5)c34)c(=O)c12 (atropisomer, axis not shown; (P)) [Example 458, N-[(1S)-1-[(3P)-3-(4-chloro-3-methanesulfonamido-1-{2-[(6S)-2,2,6-trimethylmorpholin-4-yl]ethyl}-1H-indazol-7-yl)-7-(4,4-difluorocyclohexyl)-5-methyl-4-oxo-3H,4H-pyrido[2,3-d]pyrimidin-2-yl]-2-(3,5-difluorophenyl)ethyl]-2-[(2S,4S)-9-cyclopropyl-7,8-diazatricyclo[4.3.0.0^2,^4]nona-1(6),8-dien-7-yl]acetamide] | 0.007 nM | > 20 nM
7 | Cc1cc(C2CCC(F)(F)CC2)nc2nc([C@H](Cc3cc(F)cc(F)c3)NC(=O)Cn3nc(C4CC4)c4c3C[C@@H]3C[C@H]43)n(-c3ccc(Cl)c4c(NS(C)(=O)=O)nn(CCN5CCC(F)(F)C5)c34)c(=O)c12 (atropisomer, axis not shown; (P)) [Example 232, N-[(1S)-1-[(3P)-3-{4-chloro-1-[2-(3,3-difluoropyrrolidin-1-yl)ethyl]-3-methanesulfonamido-1H-indazol-7-yl}-7-(4,4-difluorocyclohexyl)-5-methyl-4-oxo-3H,4H-pyrido[2,3-d]pyrimidin-2-yl]-2-(3,5-difluorophenyl)ethyl]-2-[(2S,4S)-9-cyclopropyl-7,8-diazatricyclo[4.3.0.0^2,^4]nona-1(6),8-dien-7-yl]acetamide] | 0.009 nM | > 50 nM
8 | COCCCn1nc(NS(C)(=O)=O)c2c(Cl)ccc(-n3c([C@H](Cc4cc(F)cc(F)c4)NC(=O)Cn4nc(C(F)F)c5c4C(F)(F)[C@@H]4C[C@H]54)nc4nc(C5CCC(F)(F)CC5)cc(NCCOC)c4c3=O)c21 (atropisomer, axis not shown; (P)) [Example 135, N-[(1S)-1-[(3P)-3-[4-chloro-3-methanesulfonamido-1-(3-methoxypropyl)-1H-indazol-7-yl]-7-(4,4-difluorocyclohexyl)-5-[(2-methoxyethyl)amino]-4-oxo-3H,4H-pyrido[2,3-d]pyrimidin-2-yl]-2-(3,5-difluorophenyl)ethyl]-2-[(2S,4R)-9-(difluoromethyl)-5,5-difluoro-7,8-diazatricyclo[4.3.0.0^2,4]nona-1(6),8-dien-7-yl]acetamide] | 0.013 nM | > 50 nM
9 | CS(=O)(=O)Nc1nn(CCN2C[C@H]3CC[C@@H](C2)O3)c2c(-n3c([C@H](Cc4cc(F)cc(F)c4)NC(=O)Cn4nc(C5CC5)c5c4C[C@@H]4C[C@H]54)nc4nc(C5CCC(F)(F)CC5)cc(C(F)F)c4c3=O)ccc(Cl)c12 (atropisomer, axis not shown; (P)) [Example 288, N-[(1S)-1-[(3P)-3-(4-chloro-3-methanesulfonamido-1-{2-[(1R,5S)-8-oxa-3-azabicyclo[3.2.1]octan-3-yl]ethyl}-1H-indazol-7-yl)-7-(4,4-difluorocyclohexyl)-5-(difluoromethyl)-4-oxo-3H,4H-pyrido[2,3-d]pyrimidin-2-yl]-2-(3,5-difluorophenyl)ethyl]-2-[(2S,4S)-9-cyclopropyl-7,8-diazatricyclo[4.3.0.0^2,^4]nona-1(6),8-dien-7-yl]acetamide] | 0.008 nM | > 50 nM
10 | Cc1cc(C2CCC(F)(F)CC2)nc2nc([C@H](Cc3cc(F)cc(F)c3)NC(=O)Cn3nc(C(F)F)c4c3C(F)(F)[C@@H]3C[C@H]43)n(-c3ccc(Cl)c4c(NS(C)(=O)=O)nn(CCOC(C)(C)C)c34)c(=O)c12 (atropisomer, axis not shown; (P)) [Example 129, N-[(1S)-1-[(3P)-3-{1-[2-(tert-butoxy)ethyl]-4-chloro-3-methanesulfonamido-1H-indazol-7-yl}-7-(4,4-difluorocyclohexyl)-5-methyl-4-oxo-3H,4H-pyrido[2,3-d]pyrimidin-2-yl]-2-(3,5-difluorophenyl)ethyl]-2-[(2S,4R)-9-(difluoromethyl)-5,5-difluoro-7,8-diazatricyclo[4.3.0.0^2,^4]nona-1(6),8-dien-7-yl]acetamide] | 0.024 nM | > 50 nM
11 | Cc1cc(C2CCC(F)(F)CC2)nc2nc([C@H](Cc3cc(F)cc(F)c3)NC(=O)Cn3nc(C4CC4)c4c3C[C@@H]3C[C@H]43)n(-c3ccc(Cl)c4c(NS(C)(=O)=O)nn(CCN5CC(C)(C)OC(C)(C)C5)c34)c(=O)c12 (atropisomer, axis not shown; (P)) [Example 13, N-[(1S)-1-[(3P)-3-{4-chloro-3-methanesulfonamido-1-[2-(2,2,6,6-tetramethylmorpholin-4-yl)ethyl]-1H-indazol-7-yl}-7-(4,4-difluorocyclohexyl)-5-methyl-4-oxo-3H,4H-pyrido[2,3-d]pyrimidin-2-yl]-2-(3,5-difluorophenyl)ethyl]-2-[(2S,4S)-9-cyclopropyl-7,8-diazatricyclo[4.3.0.0^2,4]nona-1(6),8-dien-7-yl]acetamide] | 0.011 nM | > 20000 nM
